Values belong to the molecule of their own block, whether it stands above or below them.
Columns and labels:
[1] = biological target: T1, Platelet-derived growth factor receptor beta (Homo sapiens, UniProt P09619); assay: In vitro inhibition of Platelet derived growth factor receptor beta autophosphorylation in MG-63 cells with 45% human plasma; type: cell-based
[2] = Percent bioavailability was determined in dog by iv/po dose at 5 mg/kg; type: ADME, organism-based, Canis lupus familiaris; details: in vivo
[3] = Area under curve was determined in rat by peroral dose at 10 mg/kg; type: ADME, organism-based; design: dose 10 mg/kg, route oral; details: in vivo, po
[4] = biological target: T1, Platelet-derived growth factor receptor beta; assay: Inhibition of Platelet derived growth factor receptor beta autophosphorylation in CHO cells; type: cell-based
[5] = Maximum concentration was determined in dog by iv/po dose at 5 mg/kg; type: ADME, organism-based, Canis lupus familiaris; design: dose 5 mg/kg; details: in vivo
[6] = Percent bioavailability was determined in monkey by iv/po dose at 10 mg/kg; type: ADME, organism-based; details: cercopithecidae, in vivo
[7] = Inhibition of PDGFR-beta/c-Kit chimeric receptor autophosphorylation in CHO cells; type: cell-based
[8] = Area under curve was determined in dog by peroral dose at 5 mg/kg; type: ADME, organism-based, Canis lupus familiaris; design: dose 5 mg/kg, route oral; details: in vivo, po
[9] = Inhibition of PDGFR-beta/Flt-3 chimeric receptor autophosphorylation in CHO cells; type: cell-based
[10] = Percent bioavailability was determined in rat by iv/po dose at 10 mg/kg; type: ADME, organism-based; details: in vivo
[11] = Plasma half life was determined in rat by iv/po dose at 10 mg/kg; type: ADME, organism-based; design: dose 10 mg/kg
[12] = Maximum concentration was determined in rat by iv/po dose at 10 mg/kg; type: ADME, organism-based; design: dose 10 mg/kg; details: in vivo
[13] = Plasma half life was determined in dog by iv/po dose at 5 mg/kg; type: ADME, organism-based, Canis lupus familiaris; design: dose 5 mg/kg
[14] = Maximum concentration was determined in monkey by iv/po dose at 10 mg/kg; type: ADME, organism-based; design: dose 10 mg/kg; details: cercopithecidae, in vivo
[15] = biological target: T1, Platelet-derived growth factor receptor beta; assay: In vitro inhibition of Platelet derived growth factor receptor beta autophosphorylation in MG-63 cells without plasma; type: cell-based
[16] = Plasma half life was determined in monkey by iv/po dose at 10 mg/kg; type: ADME, organism-based; design: dose 10 mg/kg; details: cercopithecidae
[17] = Maximum concentration was determined in dog by iv/po dose at 8.69 mg/kg; type: ADME, organism-based, Canis lupus familiaris; design: dose 8.69 mg/kg; details: in vivo
[18] = Bioavailability in rat (dose 30 mg/kg i.v./p.o.); type: ADME, organism-based; details: in vivo, po
[19] = Plasma half life was determined in dog by iv/po dose at 8.69 mg/kg; type: ADME, organism-based, Canis lupus familiaris; design: dose 8.69 mg/kg
[20] = Area under curve was determined in rat by peroral dose at 30 mg/kg; type: ADME, organism-based; design: dose 30 mg/kg, route oral; details: in vivo, po
[21] = Percent bioavailability was determined in dog by iv/po dose at 8.69 mg/kg; type: ADME, organism-based, Canis lupus familiaris; details: in vivo
[22] = Plasma half life was determined in rat by iv/po dose at 30 mg/kg; type: ADME, organism-based; design: dose 30 mg/kg
[23] = Maximum concentration was determined in rat by iv/po dose at 30 mg/kg; type: ADME, organism-based; design: dose 30 mg/kg; details: in vivo

T1 sequence (P09619 whole entry): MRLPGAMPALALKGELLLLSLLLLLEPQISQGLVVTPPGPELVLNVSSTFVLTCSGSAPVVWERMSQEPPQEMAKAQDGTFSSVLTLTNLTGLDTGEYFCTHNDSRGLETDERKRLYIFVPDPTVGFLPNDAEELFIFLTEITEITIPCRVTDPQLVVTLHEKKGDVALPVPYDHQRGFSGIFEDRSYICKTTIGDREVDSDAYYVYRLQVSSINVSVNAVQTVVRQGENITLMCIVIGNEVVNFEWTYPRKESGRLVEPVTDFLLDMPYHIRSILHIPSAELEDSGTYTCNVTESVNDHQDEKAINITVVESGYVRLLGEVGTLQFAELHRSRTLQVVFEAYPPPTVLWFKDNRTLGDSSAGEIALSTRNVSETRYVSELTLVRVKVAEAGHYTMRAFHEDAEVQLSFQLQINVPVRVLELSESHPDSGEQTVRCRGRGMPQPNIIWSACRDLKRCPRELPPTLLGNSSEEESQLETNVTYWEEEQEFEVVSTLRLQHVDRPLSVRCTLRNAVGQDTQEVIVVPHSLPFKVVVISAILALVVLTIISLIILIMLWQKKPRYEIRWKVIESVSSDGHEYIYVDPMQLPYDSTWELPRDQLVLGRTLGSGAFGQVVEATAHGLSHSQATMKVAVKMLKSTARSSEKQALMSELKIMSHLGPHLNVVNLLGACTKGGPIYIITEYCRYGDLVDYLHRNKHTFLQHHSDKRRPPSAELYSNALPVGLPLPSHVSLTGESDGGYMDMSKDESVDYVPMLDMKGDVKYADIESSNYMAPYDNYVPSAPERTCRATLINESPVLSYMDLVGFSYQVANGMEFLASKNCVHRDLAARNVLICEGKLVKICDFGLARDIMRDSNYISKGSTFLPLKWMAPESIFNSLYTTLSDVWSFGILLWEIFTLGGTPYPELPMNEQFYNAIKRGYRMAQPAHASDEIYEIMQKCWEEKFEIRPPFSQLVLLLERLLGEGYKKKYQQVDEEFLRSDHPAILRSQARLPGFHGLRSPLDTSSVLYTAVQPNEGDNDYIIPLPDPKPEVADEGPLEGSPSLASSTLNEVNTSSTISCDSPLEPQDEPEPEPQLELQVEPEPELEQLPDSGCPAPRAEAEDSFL

IC50 [1]: 150 nM
bioavailability [2]: 30.2%
AUC [3]: 26.9 µg/h/mL
IC50 [4]: 70 nM
Cmax [5]: 38.9 ng/mL
bioavailability [6]: 68%
IC50 [7]: 100 nM
AUC [8]: 333 ng·h/mL
IC50 [9]: 3190 nM
bioavailability [10]: 8.82%
half-life [11]: 17.4 h
Cmax [12]: 34.1 ng/mL
half-life [13]: 7.58 h
Cmax [14]: 143 ng/mL
IC50 [15]: 180 nM
half-life [16]: 8.46 h
Structure (SMILES): COc1cc2c(N3CCN(/C(S)=N\c4ccc(-c5ccccn5)cc4)CC3)ncnc2cc1OCCN1CCCCC1

IC50 [1]: 60 nM
IC50 [4]: 250 nM
Cmax [17]: 297 ng/mL
IC50 [7]: 890 nM
IC50 [9]: > 30000 nM
bioavailability [18]: 13.7%
half-life [19]: 10.8 h
AUC [20]: 32.2 µg/h/mL
bioavailability [21]: 38.8%
half-life [22]: 14.1 h
Cmax [14]: 235 ng/mL
Cmax [23]: 239 ng/mL
IC50 [15]: 50 nM
half-life [16]: 20.9 h
Structure (SMILES): COc1cc2c(N3CCN(C(=S)NCc4cnc(C)cn4)CC3)ncnc2cc1OCCN1CCCCC1
